Tests used:
[1] = system: immobilized GMP-140; assay: Neutrophil adhesion to purified GMP-140 immobilized on plastic wells (myeloperoxidase read-out); assay type: cell-based, human; settings: peptide screen, result in words
Description: (§1) Peptides were screened for their ability to inhibit neutrophil adhesion to purified GMP-140 immobilized on plastic wells, using the assay described by Geng, et al., Nature 343, 757-760 (1990).
(§2) Human neutrophils are isolated from heparinized whole blood by density gradient centrifugation on Mono-Poly resolving media, Flow Laboratories. Neutrophil suspensions are greater than 98% pure and greater than 95% viable by trypan blue exclusion. For adhesion assays, neutrophils are suspended at a concentration of 2 x 10^6 cells/ml in Hanks' balanced salt solution containing 1.26 mM Ca^2+ and 0.81 mM Mg^2+ (HBSS, Gibco) with 5 mg/ml human serum albumin (HBSS/HSA). Adhesion assays are conducted in triplicate in 96-well microtiter plates, Corning, incubated at 4°C overnight with 50 microliters of various protein solutions.
GMP-140 is plated at 5 micrograms/ml and the control proteins: human serum albumin (Alb), platelet glycoprotein IIb/IIIa (IIb), von Willebrand factor (vWF), fibrinogen (FIB), thrombomodulin (TM), gelatin (GEL) or human serum (HS), are added at 50 micrograms/ml. All wells are blocked for 2 h at 22°C with 300 microliters HBSS containing 10 mg/ml HSA, then washed three times with HBSS containing 0.1% Tween-20 and once with HBSS. Cells (2 x 10^5 per well were added to the wells and incubated at 22°C for 20 min. The wells were then filled with HBSS/HSA, sealed with acetate tape (Dynatech), and centrifuged inverted at 150 g for 5 min. After discarding nonadherent cells and supernates, the contents of each well are solubilized with 200 microliters 0.5% hexadecyltrimethylammonium bromide, Sigma, in 50 mM potassium phosphate, pH 6.0, and assayed for myeloperoxidase activity, Ley, et al., Blood 73, 1324-1330 (1989). The number of cells bound was derived from a standard curve of myeloperoxidase activity versus numbers of cells. Under all assay conditions, the cells released less than 5% of total myeloperoxidase and lactate dehydrogenase. Results are presented in Table I. 100% adhesion is that seen in the presence of the C-terminal peptide (amino acid residues 761-777 of GMP-140) as a negative control; this value is the same as controls in which neither peptide nor antibody is added to the cells. Inhibition is read as a lower percent adhesion, so that a value of 5% means that 95% of the specific adhesion was inhibited.
Peptides from the lectin-like domain of GMP-140 were assayed for their ability to inhibit adhesion of neutrophils to immobilized GMP-140 in the assay described in example 1. Concentrations tested ranged from 0.1 mM to 1.5 mM.

[2] = system: neutrophils; assay: Adhesion of neutrophils to microtiter wells coated with lectin peptide 19-34-KLH conjugate or GMP-140; assay type: cell-based, human; settings: peptide 1.5 mM; Figure 3
Description: GMP-140 is plated at 5 micrograms/ml and the control proteins: human serum albumin (Alb), platelet glycoprotein IIb/IIIa (IIb), von Willebrand factor (vWF), fibrinogen (FIB), thrombomodulin (TM), gelatin (GEL) or human serum (HS), are added at 50 micrograms/ml. All wells are blocked for 2 h at 22°C with 300 microliters HBSS containing 10 mg/ml HSA, then washed three times with HBSS containing 0.1% Tween-20 and once with HBSS. […] Inhibition is read as a lower percent adhesion, so that a value of 5% means that 95% of the specific adhesion was inhibited.
Lectin peptide 19-34 was conjugated to the carrier protein keyhole limpet hemocyanin by its N-terminal cysteine by standard procedures such as the commercial Imject kit from Pierce Chemicals. This peptide-KLH conjugate was then tested in the assay described in example 1 and the numbers of cells bound determined. […]

[3] = system: immobilized GMP-140; assay: ELISA (avidin detection) of binding of biotinylated monoclonal antibodies G1, G2, G3 to immobilized GMP-140 in presence of soluble peptide; set-up: species or system human
Description: Based on competitive ELISAs with the purified protein, G1, G2, and G3 each recognize distinct or only partially overlapping epitopes. 1.5 mM peptide was added to biotinylated mAb at a concentration of 2.5 micrograms/ml, which were then added to the wells containing GMP-140, as described in example 1. Binding was measured by an ELISA with an avidin detection system.
The monoclonal antibodies were biotinylated as follows: to 0.5 ml of purified IgG antibody (1 mg/ml in PBS, pH 7.4) was added 50 µl of 3.2 mM N-hydroxysuccinimide biotin in dimethyl sulfoxide and 50 µl of 1 M NaHCO3. After a 2 hour incubation at room temperature in the dark, the reaction was stopped with 50 µl of 1 M NH4Cl. The biotinylated antibody was then separated from other components by gel filtration on a PD-10 column equilibrated in PBS. The ELISA was performed as follows; all steps were performed at room temperature.
Biotinylated antibody (2.5 µg/ml) with or without 1.5 mM peptide was incubated with wells coated with GMP-140 as described in example 1. After a 2 hour incubation, the antibody was removed, the wells were washed, and 0.1 ml of horseradish peroxidase-conjugated stepavidin (Pierce), diluted 1:1,000 in HBSS/HSA, was added for 30 min. The wells were then washed and 0.1 ml of peroxidase substrate (Pierce) was added for 15 min. The color reaction was read at 405 nm.

[4] = target: T1, immobilized GMP-140 (Homo sapiens, UniProt P16109); assay: Neutrophil adhesion to purified GMP-140 immobilized on plastic wells (myeloperoxidase read-out); assay type: cell-based; settings: concentrations up to 300 µM
T1 construct: from tissue; host or cells: outdated human platelet packs
T1 sequence (P16109 42-830): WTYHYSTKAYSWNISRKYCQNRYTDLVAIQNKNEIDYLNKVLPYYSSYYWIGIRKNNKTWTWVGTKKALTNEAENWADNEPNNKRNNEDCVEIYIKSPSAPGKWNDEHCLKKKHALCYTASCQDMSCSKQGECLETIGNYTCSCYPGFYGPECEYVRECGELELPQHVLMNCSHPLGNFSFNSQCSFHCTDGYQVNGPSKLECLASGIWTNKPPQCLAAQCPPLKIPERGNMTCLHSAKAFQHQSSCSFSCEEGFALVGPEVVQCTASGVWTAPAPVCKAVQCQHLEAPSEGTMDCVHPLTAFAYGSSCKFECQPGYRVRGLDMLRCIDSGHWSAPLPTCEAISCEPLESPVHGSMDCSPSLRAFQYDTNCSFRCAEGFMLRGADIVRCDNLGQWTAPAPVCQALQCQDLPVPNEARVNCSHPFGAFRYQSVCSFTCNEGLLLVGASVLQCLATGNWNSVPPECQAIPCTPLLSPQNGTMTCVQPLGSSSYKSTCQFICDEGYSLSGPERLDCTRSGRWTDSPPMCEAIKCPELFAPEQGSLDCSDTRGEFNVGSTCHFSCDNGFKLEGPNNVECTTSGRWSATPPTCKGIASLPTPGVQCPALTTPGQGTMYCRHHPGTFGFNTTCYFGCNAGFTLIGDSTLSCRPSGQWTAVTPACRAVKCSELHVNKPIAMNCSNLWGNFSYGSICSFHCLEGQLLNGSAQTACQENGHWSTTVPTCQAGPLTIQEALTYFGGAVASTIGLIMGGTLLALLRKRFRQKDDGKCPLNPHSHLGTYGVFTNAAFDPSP
Description: as §1, §2
GMP-140 is plated at 5 micrograms/ml and the control proteins: human serum albumin (Alb), platelet glycoprotein IIb/IIIa (IIb), von Willebrand factor (vWF), fibrinogen (FIB), thrombomodulin (TM), gelatin (GEL) or human serum (HS), are added at 50 micrograms/ml. All wells are blocked for 2 h at 22°C with 300 microliters HBSS containing 10 mg/ml HSA, then washed three times with HBSS containing 0.1% Tween-20 and once with HBSS. […] Inhibition is read as a lower percent adhesion, so that a value of 5% means that 95% of the specific adhesion was inhibited. […]

Compound	inhibition of neutrophil adhesion to immobilized GMP-140 by peptides [1]	competition by fluid-phase competitor for neutrophil adhesion to immobilized lectin peptide 19-34-KLH conjugate [2]	% Binding of Biotinylated MAbs G1 ([3]; peptide 1.5 mM added to biotinylated mAb G1 (2.5 micrograms/ml) before addition to immobilized GMP-140) [%]	% Binding of Biotinylated MAbs G2 ([3]; peptide 1.5 mM added to biotinylated mAb G2 (2.5 micrograms/ml) before addition to immobilized GMP-140) [%]	% Binding of Biotinylated MAbs G3 ([3]; peptide 1.5 mM added to biotinylated mAb G3 (2.5 micrograms/ml) before addition to immobilized GMP-140) [%]	effect on binding of neutrophils to purified, immobilized GMP-140 [4]
LECTIN 19-34: synthetic peptide, amino acids 19-34 of the lectin domain of GMP-140 (CQNRYTDLVAIQNKNE; UniProt P16109 60-75, looked up, fragment)	inhibited adhesion	compete for adhesion	23	26	24	–
CC(=O)N[C@H]1[C@H](O[C@H]2[C@@H](O)[C@@H](CO)O[C@@H](O[C@H]3[C@H](O)[C@@H](O)C(O)O[C@@H]3CO)[C@@H]2O)O[C@H](CO)[C@@H](O[C@@H]2O[C@H](CO)[C@H](O)[C@H](O)[C@H]2O)[C@@H]1O[C@@H]1O[C@@H](C)[C@@H](O)[C@@H](O)[C@@H]1O (stereo partly drawn) [LNFIII]	–	–	–	–	–	absolutely no effect
